In one experiment the test system is HCMV strain AD169. Put plainly: HCMV plaque formation assay in MRC-5 cells. It counts as cell-based.
Experiment [1] concerns isolated buffer-perfused and ventilated rabbit lung. As to the kind of experiment: Isolated ventilated and buffer perfused lung model. The procedure:
The isolated buffer-perfused and ventilated rabbit lung model is established for the investigation of the lung circulation, parenchyma, bronchial system and metabolic processes. Lungs are prepared from intact animals; the lungs are artificially ventilated and blood-free perfused. This model allows the study of pathophysiologic aspects under different conditions. Isolation of the intact lung enables observation of vasoreactivity, ventilation pressures and gas exchange avoiding humoral, central or metabolic influence. Lungs were perfused with test peptide BNP using a pulsatile flow roller pump in a closed system with recirculating buffer fluid. A rabbit ventilator enables the artificial ventilation with room air/carbon dioxide-mixture (CO2). Parameters continuosly measured include lung artery and left atrial pressure and ventilation pressure. Registration of lung weight gain serves as a parameter for development of lung edema. Samples of buffer fluid can be taken through the catheters.
Rabbits (New Zealand white bastards) of either sex, weighing 2.2-2.5 kg were anesthetized, using ketamine (Ketamin Inresa®, Inresa, Freiburg, Germany) and xylazine (Rompun®, Bayer, Leverkusen, Germany). Animals were anticoagulated with heparin (1000 U/kg body weight). After tracheotomy artificial ventilation was started with room air using a Havard respirator (tidal volume 8-12 ml/kg, frequency 30 breaths/min). Midsternal thoracotomy followed in a deep analgosedation and catheters were placed into the pulmonary artery and the left atrium. Lungs were perfused with sterile Krebs-Henseleit hydroxyethylamylopectine buffer (120 mM NaCl, 4.3 mM KCl, 1.1 mM KH2PO4, 25 mM NaHCO3, 2.4 mM CaCl2, 1.3 mM […], 2.4 g/L glucose) and 2.5% hydroxyethylamylopectine (mol weight 200,000) as an oncotic agent (Serag Wiesner, Naila, Germany). All concentrations are given as the final concentration in the buffer fluid.
The isolated lungs were freely suspended from an electronic force transducer (Transducer U1, Hottinger Baldwin Messtechnik, Darmstadt, Germany) in a humidified and tempered glas thorax. Perfusion was performed at a constant rate of 120 mL/min in a recirculating manner (total perfusate volume 300 mL), and the whole system was heated to 38° C. Room air, supplemented with ˜4% carbon dioxide was used for artificial ventilation to reach a pH of 7.34 to 7.38 and a positive end exspiratory pressure (PEEP) was set at 1-1.3 mmHg. Pressure in left atrium was set at 1.2 mmHg (reference point hilum). Pulmonary artery and ventilation pressures were continuously measured and are shown as mean values.
Independent variables in all experiments were: constant perfusion flow rate of 120 ml/min and a ventilator setting (tidal volume 8-12 ml/kg; frequency 30 breaths/min). The main dependent variables included: pressures in trachea and artery which were continuously measured. Lung weight gain as a parameter of lung edema formation was also continuously registered. Under constant flow condition, elevation of the artery pressure directly reflected an increase in vascular resistance.
Thromboxan A2 mimetic U46619 induces vasoconstriction: Lung artery pressure under resting conditions is about 8 mmHg. Slow titration, followed by continuous infusion of the thromboxan A2 mimetic U46619 causes precapillary vasoconstriction of about 25 mmHg. An observation period of up to 3 hours is accessible for further intervention.
Endothelin 1 (ET1) vasoconstricts the lung vasculature and leads to increased pressure in the isolated rabbit lung in a biphasic matter that is dose dependent. Infusion or inhalation of the test peptide of the invention is tested for therapeutic effect of lowering the vasoconstriction.
All data are shown as mean and standard error of mean (SEM). For primary data analysis, comparison was performed between the U46619 group and intravascular administered peptide. […]

In another experiment the test system is Interleukin-2 (IL-2). Put plainly: Th1/Th2 cytokine profiling assay: IL-2. It counts as cell-based, Balb/c mice. As to conditions: 10 micrograms per ml; Ovalbumin restimulation; 72 hours.
Experiment [2] concerns Primary Human endothelial cells (HUVEC). As to the kind of experiment: Endothelial cell migration assay. It counts as cell-based. The settings on record: 10 micrograms per ml, 22 hours.
In another experiment the test system is HUVEC. Put plainly: Endothelial tube formation assay. It counts as cell-based, human. The settings on record: 10 micrograms per ml, 20 hours. An excerpt: Positive control was vehicle only.
The subject of another experiment is cGMP. As to the kind of experiment: Cyclic GMP measurement in the rabbit lung model. As to conditions: buffer samples from left atrial catheter; RIA; administration dependent. The procedure: Buffer samples were drawn from the left atrial catheter in the isolated buffer-perfused and ventilated rabbit lung model at predefined time points, every 30 minutes in the control group and every 15 minutes in the intervention groups. Samples were immediately frozen and stored at −80° Celsius. Analysis of cGMP was performed using a commercially available radio immuno (RIA) assay kit.

The test system of another experiment is Interferon-γ (IFN-γ). Put plainly: Th1/Th2 cytokine profiling assay: IFN-γ. The settings on record: 10 micrograms per ml; Ovalbumin restimulation; 72 hours. It counts as cell-based, Balb/c mice.
The subject of the next experiment is Interleukin-4 (IL-4). As to the kind of experiment: Th1/Th2 cytokine profiling assay: IL-4. It counts as cell-based, Balb/c mice. As to conditions: 10 micrograms per ml; Ovalbumin restimulation; 72 hours.
In experiment [3] the test system is Tumor Necrosis Factor-α (TNF-α). Put plainly: Th1/Th2 cytokine profiling assay: TNF-α. It counts as cell-based, Balb/c mice. As to conditions: 10 micrograms per ml; Ovalbumin restimulation; 72 hours.
Source text: (§1) The Balb/c mice (originated in 1923, it is a popular strain and is used in many different research disciplines. Also classified as an inbred from the production of 20 or more successive brother-sister matings, the Balb/c mouse is albino and small in size) were immunized on Days 1, 15, and 29 with Ovalbumin (Ovalbumin is the main protein found in egg white, commonly used to stimulate an immunological reaction in test animals) in PBS (5 micrograms/injection). On day 50, spleens of the mice were harvested (3 weeks after last boost with Ovalbumin). Cells were cultured (2×10^5/well in triplicate) and incubated with culture medium or test peptides—10 micrograms per ml—for 30 min. Thereafter, additional Ovalbumin was added to the cells at 10 micrograms/ml for in vitro restimulation of the cells. 72 hours later, cell supernatants were harvested and assayed using the Becton Dickinson Mouse Th1/Th2 Cytokine CBA Kit. This kit can be used to measure Interleukin-2 (IL-2), Interleukin-4 (IL-4), Interleukin-5 (IL-5), Interferon-γ (IFN-γ), and Tumor Necrosis Factor-α (TNF-α) protein levels in a single sample. The kit performance has been optimized for analysis of physiologically relevant concentrations (pg/ml levels) of specific cytokine proteins in tissue culture supernatants and serum samples.
A further experiment has as its system Interleukin-5 (IL-5). As to the kind of experiment: Th1/Th2 cytokine profiling assay: IL-5. Format: cell-based, Balb/c mice. The settings on record: 10 micrograms per ml; Ovalbumin restimulation; 72 hours.
Another experiment has as its system Human A549 cells. As to the kind of experiment: Apoptosis prevention assay (C2 ceramide, Annexin-5). Format: cell-based. The settings on record: 10 micrograms per ml, 30 min pretreatment.
In another experiment the test system is HIV-1IIIB. As to the kind of experiment: HIV-1 antiviral assay in CEM-SS cells.
The mark [4] stands for this setting: increasing doses of 5, 10 and 100 nM, isolated rabbit lung.

Bridge positions count the residues as written; N and C are the ends. Ends that are not written are not given here.

From US20100184680A1, “THERAPEUTIC USES OF B-TYPE NATRIURETIC PEPTIDE AND HUMAN GROWTH HORMONE 1-43” (priority 2007, published 2010) come the findings set out here.

Procedure for Human A549 cells: Human A549 cells (carcinomic human alveolar basal epithelial cells) were utilized in the experiments employing the Annexin-5 apoptosis assay. […] A549 cells were pretreated for 30 min with test peptides—10 micrograms per ml—followed by the exposure to C2 ceramide.
Source text for Interferon-γ (IFN-γ): as §1
Source text for Interleukin-2 (IL-2): as §1
Source text for Interleukin-4 (IL-4): (§2) The Balb/c mice (originated in 1923, it is a popular strain and is used in many different research disciplines. Also classified as an inbred from the production of 20 or more successive brother-sister matings, the Balb/c mouse is albino and small in size) were immunized on Days 1, 15, and 29 with Ovalbumin (Ovalbumin is the main protein found in egg white, commonly used to stimulate an immunological reaction in test animals) in PBS (5 micrograms/injection). On day 50, spleens of the mice were harvested (3 weeks after last boost with Ovalbumin). Cells were cultured (2×10^5/well in triplicate) and incubated with culture medium or test peptides—10 micrograms per ml—for 30 min. Thereafter, additional Ovalbumin was added to the cells at 10 micrograms/ml for in vitro restimulation of the cells. 72 hours later, cell supernatants were harvested and assayed using the Becton Dickinson Mouse Th1/Th2 Cytokine CBA Kit.
Source text for Interleukin-5 (IL-5): as §2

Take `Nc1nc(O)c2ncn(COC(CO)CO)c2n1` [Ganciclovir]: the “antiviral activity of positive control compound (HCMV)” value in the experiment on HCMV strain AD169 was “expected levels of antiviral activity”.

In the case of “Endothelin 1 (CSCSSLMDKECVYFCHLDIIW; disulfide 1-15, 3-11; ends not checked; UniProt P05305 53-73, looked up) [ET1, Endothelin 1 (ET1) vasoconstricts the lung vasculature, reference compound]”, the “vasoconstriction (lung artery pressure), stable plateau phase” value in [1] (administration into the buffer fluid, rise over 60 minutes) came out at 27±2.16 mmHg.

With “Ser-Pro-Lys-Met-Val-Gln-Gly-Ser-Gly-Cys-Phe-Gly-Arg-Lys-Met-Asp-Arg-Ile-Ser-Ser-Ser-Ser-Gly-Leu-Gly-Cys-Lys-Val-Leu-Arg-Arg-His [Peptide 1]”, in experiment [1] (setting [4]), the “arterial pressure under stable high vasoconstriction” value is “rapid and dose dependent decline”; the lung weight entry is “without affecting”; the ventilation pressure entry is reported as “without affecting”. In the experiment on Interleukin-2 (IL-2), the “IL-2 spleen cells (% of control)” value is recorded as 0.0 % of control. In experiment [2], the “inhibited the migration of human endothelial cells” value is given as 21%. For the same molecule, in the experiment with HUVEC, the “inhibited the tube formation of endothelial cells” value came out at 3%. Moreover, in the experiment with cGMP, the cGMP levels entry was “significantly increased”. The “IFNγ spleen cells; TH1 response (% of control)” value in the experiment with Interferon-γ (IFN-γ) was 66.1 % of control. Besides, the “IL-4 spleen cells; TH2 response (% of control)” value in the experiment on Interleukin-4 (IL-4) is on record as 0.0 % of control. Besides, the “TNF-a spleen cells; TH1 response (% of control)” value in experiment [3] is 93.1 % of control. Further, the “IL-5 spleen cells; TH2 response (% of control)” value with Interleukin-5 (IL-5) is 92.7 % of control. Besides, the “prevented (reduced) ceramide-induced apoptosis on human lung cells” value with Human A549 cells is listed as 14.4%.

As for `CC(C)(C)NC(=O)[C@@H]1CN(Cc2cccnc2)CCN1C[C@@H](O)C[C@@H](Cc1ccccc1)C(=O)N[C@H]1c2ccccc2C[C@H]1O` [indinavir], the “antiviral activity of positive control compounds (HIV-1)” value with HIV-1IIIB was “expected levels of antiviral activity”.

As for `Cc1cn([C@H]2C[C@H](N=[N+]=[N-])[C@@H](CO)O2)c(=O)[nH]c1=O` [AZT], the “antiviral activity of positive control compounds (HIV-1)” value in the experiment with HIV-1IIIB was “expected levels of antiviral activity”.

Take “Phe-Pro-Thr-Ile-Pro-Leu-Ser-Arg-Leu-Phe-Asp-Asn-Ala-Met-Leu-Arg-Ala-His-Arg-Leu-His-Gln-Leu-Ala-Phe-Asp-Thr-Tyr-Gln-Glu-Phe-Glu-Glu-Ala-Tyr-Ile-Pro-Lys-Glu-Gln-Lys-Tyr-Ser-OH (FPTIPLSRLFDNAMLRAHRLHQLAFDTYQEFEEAYIPKEQKYS-OH) [Peptide 2, Human growth Hormone (1-43); HGH]”: the “IL-2 spleen cells (% of control)” value in the experiment on Interleukin-2 (IL-2) is reported as 132.2 % of control. Besides, the “induced the migration of human endothelial cells” value in experiment [2] was 14%. Also, the “inhibited the tube formation of endothelial cells” value with HUVEC worked out at 19%. Moreover, the “IFNγ spleen cells; TH1 response (% of control)” value with Interferon-γ (IFN-γ) is reported as 60.3 % of control. In the experiment on Interleukin-4 (IL-4), the “IL-4 spleen cells; TH2 response (% of control)” value is given as 184.6 % of control. In [3], the “TNF-a spleen cells; TH1 response (% of control)” value was 94.0 % of control. For the same molecule, the “IL-5 spleen cells; TH2 response (% of control)” value in the experiment with Interleukin-5 (IL-5) is recorded as 78.2 % of control. In the experiment on Human A549 cells, the “prevented (reduced) ceramide-induced apoptosis on human lung cells” value stood at 18.4%.

Regarding `CCCCC[C@H](O)/C=C/[C@@H]1[C@@H](C/C=C\CCCC(=O)O)[C@H]2CO[C@@H]1C2` [U46619, reference compound], the “vasoconstriction (lung artery pressure), plateau at the end of the experiment” value in [1] (continuous infusion, after another 135 minutes) is 25.53±0.9 mmHg. Moreover, the “vasoconstriction (lung artery pressure) provoked by continuous infusion” value in [1] (within 15 minutes, isolated rabbit lung) amounted to 25.5±0.26 mmHg.
